Literature values as cited in article PMC6044621 (ACS Omega, 2016).

Test system: Cbx7
Details: ref 13c

UNC3866
potency as Cbx7 inhibitor: 97 nM
